The text below walks through data of PubChem BioAssay (NCI).

Some test systems named below: U251 CNS; TK-10 renal; M14 melanoma; K-562 leukemia; A498 renal; 786-0 renal; CCRF-CEM leukemia; NCI/ADR-RES ovarian; MDA-N; SK-MEL-28 melanoma; SF-539 CNS.
Common to all, as to assay: NCI tumour cell line growth inhibition, 48 h

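Exposure lasted 48 hours, with cells grown in 96-well plates and compounds tested at five concentrations. At the TGI there is no net growth.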

Regarding `CCCCCCCCC/C=C1/CC(CO)(COC(=O)c2ccccc2)OC1=O` (configuration not stated), the TGI worked out at 27.1 µM in the experiment with U251 CNS; 22.7 µM with TK-10 renal; 30.8 µM in the experiment with M14 melanoma; 22.5 µM with K-562 leukemia; 26.4 µM in the experiment with A498 renal; 29.4 µM with 786-0 renal. Also, the TGI in the experiment with CCRF-CEM leukemia was determined as 28.7 µM; with NCI/ADR-RES ovarian, 28.8 µM; in the experiment with MDA-N it was 20.6 µM; in the experiment with SK-MEL-28 melanoma, 26.6 µM; with SF-539 CNS it was 34.8 µM.
`COC1=CC(=O)C2=C(C[C@@]3(C)C(=C2)C(CO)=CC[C@H]3O)C1=O`: the TGI with U251 CNS is 41.6 µM; in the experiment with TK-10 renal, more than 100 µM; with M14 melanoma it was 44.2 µM; in the experiment with K-562 leukemia, 24 µM; in the experiment with A498 renal, more than 100 µM; with 786-0 renal, 38.1 µM. Further, the TGI in the experiment with CCRF-CEM leukemia came to 38.4 µM; with NCI/ADR-RES ovarian it was 56.1 µM; in the experiment on MDA-N, 37.4 µM; in the experiment on SK-MEL-28 melanoma, 82.7 µM; in the experiment on SF-539 CNS, 34.7 µM.
With `O=C1CC2SC(COCc3ccccc3)(CCN2Cc2ccccc2)C1` (configuration not stated), the TGI with U251 CNS was more than 100 µM; in the experiment with TK-10 renal, 76.3 µM; in the experiment with M14 melanoma, more than 100 µM; in the experiment with K-562 leukemia, more than 100 µM; with A498 renal, more than 100 µM; in the experiment with 786-0 renal, more than 100 µM. In addition, the TGI in the experiment with CCRF-CEM leukemia, with NCI/ADR-RES ovarian, in the experiment on MDA-N, with SK-MEL-28 melanoma and with SF-539 CNS was more than 100 µM throughout.
In the case of `CCOC(=O)C(Cc1ccc(N(CCCl)CCCl)cc1)NC(=O)CCCN1C(=O)CN=C(c2ccccc2)c2cc(Cl)ccc21` (configuration not stated), the TGI with U251 CNS is more than 100 µM; in the experiment on TK-10 renal it was more than 100 µM; in the experiment with M14 melanoma it was 22.3 µM; in the experiment with K-562 leukemia it was more than 100 µM; in the experiment with A498 renal, more than 100 µM; in the experiment on 786-0 renal it was more than 77.5 µM. Besides, the TGI in the experiment with CCRF-CEM leukemia was more than 100 µM; in the experiment on NCI/ADR-RES ovarian it was more than 87.1 µM; with MDA-N, 19.1 µM; in the experiment on SK-MEL-28 melanoma, 8.35 µM; with SF-539 CNS, 16.3 µM.
Take `C1CN2CCNCCN(CCN1)CC2`: the TGI in the experiment on U251 CNS, with TK-10 renal, with M14 melanoma, with K-562 leukemia, in the experiment with A498 renal and with 786-0 renal was more than 100 µM each time. The TGI with CCRF-CEM leukemia, in the experiment with NCI/ADR-RES ovarian, with MDA-N, with SK-MEL-28 melanoma and in the experiment with SF-539 CNS was more than 100 µM each time.
Consider `COC1CC(O[C@H]2CC[C@@]3(C)[C@@H](CC[C@]4(O)[C@@H]3CC[C@]3(C)[C@@H](C(C)=O)[C@H](OC(=O)CC(C)C)[C@@H](OC(=O)c5ccccc5)[C@@]34O)C2)OC(C)C1OC1CC(OC)C(OC2OC(C)C(O)C(OC)C2O)C(C)O1` (some centres not stated), for which the TGI in the experiment on U251 CNS, in the experiment on TK-10 renal, with M14 melanoma, with K-562 leukemia, in the experiment on A498 renal and in the experiment with 786-0 renal was more than 25 µM in each case. Further, the TGI with CCRF-CEM leukemia, with NCI/ADR-RES ovarian, in the experiment on MDA-N, in the experiment on SK-MEL-28 melanoma and in the experiment on SF-539 CNS was more than 25 µM in each case.
Turning to `C#CC1NC(=O)C1N(CC)CC` (configuration not stated), the TGI in the experiment on U251 CNS, with TK-10 renal, in the experiment on M14 melanoma, in the experiment with K-562 leukemia, with A498 renal and with 786-0 renal was more than 100 µM throughout. Moreover, the TGI in the experiment on CCRF-CEM leukemia, with NCI/ADR-RES ovarian, in the experiment on MDA-N, in the experiment with SK-MEL-28 melanoma and in the experiment on SF-539 CNS was more than 100 µM in each case.
As for `CC1=CCC2CC1NC(=O)CCOCCC(=O)NC2(C)C` (configuration not stated), the TGI in the experiment on U251 CNS, with TK-10 renal, in the experiment on M14 melanoma, in the experiment with K-562 leukemia, with A498 renal and in the experiment on 786-0 renal was more than 100 µM each time. For the same compound, the TGI in the experiment with CCRF-CEM leukemia, with NCI/ADR-RES ovarian, in the experiment with MDA-N, in the experiment with SK-MEL-28 melanoma and in the experiment on SF-539 CNS was more than 100 µM in each case.
Take `O=c1oc2ccc([N+](=O)[O-])cc2cc1Br`: the TGI with U251 CNS, in the experiment on TK-10 renal, with M14 melanoma, in the experiment with K-562 leukemia, in the experiment with A498 renal and with 786-0 renal was more than 100 µM throughout. Further, the TGI in the experiment with CCRF-CEM leukemia, in the experiment on NCI/ADR-RES ovarian, with MDA-N, in the experiment on SK-MEL-28 melanoma and in the experiment with SF-539 CNS was more than 100 µM in each case.
For the compound `Cc1cccc2c1c(=O)c1c(O)cc(O)cc1n2C`, the TGI in the experiment on U251 CNS, with TK-10 renal, with M14 melanoma, with K-562 leukemia, in the experiment on A498 renal and in the experiment on 786-0 renal was more than 100 µM throughout. The TGI in the experiment on CCRF-CEM leukemia, in the experiment with NCI/ADR-RES ovarian, with MDA-N, with SK-MEL-28 melanoma and in the experiment on SF-539 CNS was more than 100 µM each time.
For `CCCNC(=O)N(C)C(=O)N1N=C(c2ccccc2)C1c1ccccc1` (configuration not stated), the TGI in the experiment on U251 CNS, in the experiment with TK-10 renal, with M14 melanoma, in the experiment on K-562 leukemia, in the experiment with A498 renal and in the experiment on 786-0 renal was more than 100 µM in each case. Also, the TGI with CCRF-CEM leukemia is 75.8 µM; with NCI/ADR-RES ovarian it was more than 100 µM; in the experiment on MDA-N, more than 100 µM; in the experiment on SK-MEL-28 melanoma, more than 100 µM; with SF-539 CNS, more than 100 µM.
Regarding `Cc1nnc(Sc2nc(C#N)c(C#N)nc2Sc2nnc(C)s2)s1`, the TGI in the experiment with U251 CNS amounted to 47.5 µM; with TK-10 renal it was 41.4 µM; in the experiment with M14 melanoma it was 62.9 µM; in the experiment on K-562 leukemia it was 12.6 µM; with A498 renal, 53.3 µM; in the experiment on 786-0 renal it was 28.6 µM. For the same compound, the TGI in the experiment with CCRF-CEM leukemia was 5.15 µM; in the experiment with NCI/ADR-RES ovarian, 51 µM; with MDA-N, 49.7 µM; in the experiment with SK-MEL-28 melanoma, 47 µM; in the experiment on SF-539 CNS, more than 60.1 µM.
